One molecule from ChEMBL document CHEMBL1201862, “PubChem BioAssay data set” (2004) can be followed below.

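These data come from cells grown in 96-well plates and exposed to compound for 48 hours at five concentrations. The concentration for 50% growth inhibition is given as GI50.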 The source made the active and inactive calls. Cut-off read from the data, not from the text of the source: active = GI50 up to about 1.1 µM and inactive = higher.

Some test systems named below: RPMI-8226; SNB-75; NCI-H226; SK-MEL-5; UACC-257; SK-OV-3; CCRF-CEM; NCI-H460; 786-0; TK-10; UACC-62; SW-620; M14; HCT-15; MOLT-4; SK-MEL-2; A549; U-251; HT-29; OVCAR-3.
Holding throughout (assay): NCI tumour cell line growth inhibition, 48 h

Take `COc1cccc(C(=O)C#Cc2cnc(OC)nc2OC)c1`: the GI50 in the assay on RPMI-8226 was 2010 nM (inactive); in the assay with SNB-75, 2260 nM (inactive); in the assay with NCI-H226 it was 1110 nM (active); with SK-MEL-5, 1240 nM (inactive); in the assay on UACC-257, 2150 nM (inactive); in the assay on SK-OV-3, 18100 nM (inactive). Besides, the GI50 is 28.6 nM (active) in the assay with CCRF-CEM; 9080 nM (inactive) with NCI-H460; 1830 nM (inactive) with 786-0; 1430 nM (inactive) in the assay with TK-10; 1360 nM (inactive) in the assay with UACC-62; 504 nM (active) with SW-620. Moreover, the GI50 in the assay on M14 was 1210 nM (inactive); in the assay with HCT-15 it was 200 nM; in the assay on MOLT-4, 155 nM (active); in the assay on SK-MEL-2 it was 1800 nM (inactive); in the assay with A549, 4820 nM (inactive); with U-251, 2840 nM (inactive). In addition, the figures for the GI50 in the assay on HT-29 and with OVCAR-3 were 1090 nM (active) and 1810 nM (inactive), respectively.
